PMC9833666, “Designing and identifying β-hairpin peptide macrocycles with antibiotic potential” (Science Advances, 2023)
Like-named read-outs stand apart in the source and are kept apart here. Bridge positions count the residues as written; N and C are the ends. Ends that are not written are not given here.

Tests used:
[1] = system: Single-donor human red blood cells; experiment: Hemolysis assay; type: cell-based
Procedure: Single-donor human red blood cells (Innovative Research, no. IWB3ALS) were washed in PBS and adjusted to a concentration of 1 × 10^9 cells/ml. Each peptide was added individually to 200 μl of cells at a concentration of either 300 μg/ml (SySA library) or 128 μg/ml (SySA-5 optimization library) in a 96-well polypropylene plate (Corning, 3879). PBS alone and 1% Triton X-100 were used for background normalization and 100% hemolysis, respectively. Each reaction was set up in triplicate. Plates were incubated for 3 hours at 37°C. Following incubation, samples were centrifuged at 800g for 20 min, and 100 μl of supernatant was transferred to a flat-bottom 96-well plate (Genesse, 25-104). Percent hemolysis for each sample was determined by normalizing the absorbance at 540 nm for each sample to the average background and dividing by the average absorbance for 1% Triton X-100 (100% hemolysis). Error bars represent 1 SD of triplicate samples.

Escherichia coli W3110 = type: cell-based; conditions: for Ec W3110 MIC MH: E. coli W3110, MH medium; for Ec W3110 MIC RPMI: E. coli W3110, RPMI medium
Procedure: MICs were performed by a modifiedClinical and Laboratory Standards Institute) procedure. […] Separately, E. coli W3110 or A. baumannii AB5075 was grown overnight in 5 ml of standard MH at 37°C. Cells from these cultures were diluted to a concentration of 5 × 10^5 to 6 × 10^5 cells/ml in either standard MH, MHII, RPMI, or fetal bovine serum, and 90 μl was added to each well of the 96-well plate containing diluted peptide. Plates were wrapped twice in parafilm and incubated at 37°C for 18 to 24 hours. Wells were examined by eye against wells with no bacteria for signs of growth. MICs were reported as the minimum concentration with no observable growth. In cases where triplicate samples differed, the concentration supported by the median of the three replicates was reported.

Compound | Ec W3110 MIC MH (Escherichia coli W3110) [µg/mL] | Ec W3110 MIC RPMI (Escherichia coli W3110) [µg/mL] | Hemolysis (%) ([1]; human red blood cells 1x10^9 cells/ml, peptide 300 μg/ml, 3 h 37°C, relative to 1% Triton X-100, A540, ± 1 SD, n=3) | hemolysis ([1]; human red blood cells, st dev in separate column) [%] | W3110 MIC MHII (Escherichia coli W3110; E. coli W3110, MHII medium) [µg/mL] | fold increase in MHII MIC relative to standard MH (Escherichia coli W3110; cation-adjusted MH (MHII) vs standard MH) | hemolysis [1] [%]
NC[C@H]1O[C@H](O[C@H]2[C@H](O)[C@@H](O[C@H]3O[C@H](CO)[C@@H](O)[C@H](N)[C@H]3O)[C@H](N)C[C@@H]2N)[C@H](O)[C@@H](O)[C@@H]1O [kanamycin, reference compound] | 1 | – | 0.1 ± 0.03 | 0.0147 | 2 | twofold | –
CLRIRVNNRGSGLRISVEVC (disulfide 1-20 (inferred)) [SySA-22] | > 256 | > 256 | – | – | – | – | 0.48
CLRVRVNDRGSGVKITVEVC (disulfide 1-20 (inferred)) [SySA-39] | > 256 | > 256 | – | – | – | – | 0.28
CLTIRVNNRRGRVRISVQVC (disulfide 1-20 (inferred)) [SySA-15] | > 256 | > 256 | – | – | – | – | 0.80
CRIKVDINNRSGRVKLQVQC (disulfide 1-20 (inferred)) [SySA-20] | > 256 | > 256 | – | – | – | – | 0.42
CRIRIDIDNRGRTVRLEVQC (disulfide 1-20 (inferred)) [SySA-28] | > 256 | > 256 | – | – | – | – | 0.0423
CRIRIDVNNGSGRLKLQLEC (disulfide 1-20 (inferred)) [SySA-21] | > 256 | > 256 | – | – | – | – | 0.42
CRIRIDVNNRSGTLKLQVQC (disulfide 1-20 (inferred)) [SySA-36] | > 256 | > 256 | – | – | – | – | -0.0122
CRIRINIDNRSGTVRLEVQC (disulfide 1-20 (inferred)) [SySA-3] | > 256 | > 256 | – | – | – | – | 0.24
CRIRINVNNRGRTLKLEVQC (disulfide 1-20 (inferred)) [SySA-10] | > 256 | > 256 | – | – | – | – | 0.40
CRIRVNINNRRRTLRLEVEC (disulfide 1-20 (inferred)) [SySA-35] | > 256 | > 256 | – | – | – | – | 0.12
CRVKINIDNRSRRVKLQVQC (disulfide 1-20 (inferred)) [SySA-6] | > 256 | > 256 | – | – | – | – | 0.66
CRVRININNGGRRVKLEVQC (disulfide 1-20 (inferred)) [SySA-32] | > 256 | > 256 | – | – | – | – | 0.0319
CRVRVNINNGSGRVKLELEC (disulfide 1-20 (inferred)) [SySA-19] | > 256 | > 256 | – | – | – | – | 0.33
CRVRVNINNRGGTVKLQLQC (disulfide 1-20 (inferred)) [SySA-13] | > 256 | > 256 | – | – | – | – | 0.91
CVRVRLDNRGGGLRISLEVC (disulfide 1-20 (inferred)) [SySA-2] | > 256 | > 256 | – | – | – | – | 0.57
CVRVRVDNRGSRVKVTVQVC (disulfide 1-20 (inferred)) [SySA-12] | > 256 | > 256 | – | – | – | – | 0.30
CVRVRVNNRGGGVRITLQVC (disulfide 1-20 (inferred)) [SySA-24] | > 256 | > 256 | – | – | – | – | 0.38
CVTIRLNDGGSGLKISLQVC (disulfide 1-20 (inferred)) [SySA-23] | > 256 | > 256 | – | – | – | – | -0.03
CVTIRVDNRGSRLKISVQVC (disulfide 1-20 (inferred)) [SySA-33] | > 256 | > 256 | – | – | – | – | 0.26
CVTVRVNNRGSRLKVSVEVC (disulfide 1-20 (inferred)) [SySA-18] | > 256 | > 256 | – | – | – | – | 0.60

Second part, led by results:

Ec W3110 MIC MH (Escherichia coli W3110) [µg/mL] | Ec W3110 MIC RPMI (Escherichia coli W3110) [µg/mL] | Compound | Hemolysis (%) ([1]; human red blood cells 1x10^9 cells/ml, peptide 300 μg/ml, 3 h 37°C, relative to 1% Triton X-100, A540, ± 1 SD, n=3) | hemolysis ([1]; human red blood cells, st dev in separate column) [%] | W3110 MIC MHII (Escherichia coli W3110; E. coli W3110, MHII medium) [µg/mL] | fold increase in MHII MIC relative to standard MH (Escherichia coli W3110; cation-adjusted MH (MHII) vs standard MH) | hemolysis [1] [%]
> 256 | > 256 | CLRIRLNNRGRGVKVSVEVC (disulfide 1-20 (inferred)) [SySA-46] | – | – | – | – | 0.47
> 256 | > 256 | CLRIRLNNRRSRVRISVEVC (disulfide 1-20 (inferred)) [SySA-52] | – | – | – | – | 9.99
> 256 | > 256 | CLRIRVDNRGSGVKVTLEVC (disulfide 1-20 (inferred)) [SySA-57] | – | – | – | – | 0.25
> 256 | > 256 | CLRVRVDNGGSRLKITLEVC (disulfide 1-20 (inferred)) [SySA-75] | – | – | – | – | 2.18
> 256 | > 256 | CLRVRVNNRRSGVRVTLEVC (disulfide 1-20 (inferred)) [SySA-67] | – | – | – | – | 0.70
> 256 | > 256 | CLTIRVDNRGSRVRITLEVC (disulfide 1-20 (inferred)) [SySA-70] | – | – | – | – | 0.92
> 256 | > 256 | CLTVRLDNRGRGLKISVEVC (disulfide 1-20 (inferred)) [SySA-60] | – | – | – | – | 0.53
> 256 | > 256 | CLTVRLDNRGSGLRITVEVC (disulfide 1-20 (inferred)) [SySA-44] | – | – | – | – | -0.0761
> 256 | > 256 | CLTVRLNNRGGGVKISVEVC (disulfide 1-20 (inferred)) [SySA-59] | – | – | – | – | 0.32
> 256 | > 256 | CLTVRVDNRGSRLKVTVEVC (disulfide 1-20 (inferred)) [SySA-55] | – | – | – | – | -0.10
> 256 | > 256 | CLTVRVNNRGSGVKVSLEVC (disulfide 1-20 (inferred)) [SySA-54] | – | – | – | – | 1.51
> 256 | > 256 | CLTVRVNNRRSGVRVSVQVC (disulfide 1-20 (inferred)) [SySA-43] | – | – | – | – | 0.11
> 256 | > 256 | CRIKIDVDNRRRTLKLQLEC (disulfide 1-20 (inferred)) [SySA-74] | – | – | – | – | 0.72
> 256 | > 256 | CRIRININNRRGRLKLQVEC (disulfide 1-20 (inferred)) [SySA-76] | – | – | – | – | 0.27
> 256 | > 256 | CRIRINVNNGSGRVRLELEC (disulfide 1-20 (inferred)) [SySA-77] | – | – | – | – | 0.32
> 256 | > 256 | CRVKINVDNRSGRVKLELQC (disulfide 1-20 (inferred)) [SySA-69] | – | – | – | – | 0.72
> 256 | > 256 | CRVKINVNNRGRTLKLELEC (disulfide 1-20 (inferred)) [SySA-58] | – | – | – | – | 0.000315
> 256 | > 256 | CRVKVNINNGSRRLRLQVQC (disulfide 1-20 (inferred)) [SySA-50] | – | – | – | – | 0.34
> 256 | > 256 | CRVRIDIDNRSRTLKLEVQC (disulfide 1-20 (inferred)) [SySA-64] | – | – | – | – | 0.70
> 256 | > 256 | CRVRINIDNRSGRVKLEVQC (disulfide 1-20 (inferred)) [SySA-87] | – | – | – | – | 4.63
> 256 | > 256 | CRVRININNRSRTLKLELEC (disulfide 1-20 (inferred)) [SySA-68] | – | – | – | – | 0.47
> 256 | > 256 | CVRIRLNNGGSGVKVTVEVC (disulfide 1-20 (inferred)) [SySA-85] | – | – | – | – | 1.81
> 256 | > 256 | CVTVRVNNRGGRLKVSVEVC (disulfide 1-20 (inferred)) [SySA-56] | – | – | – | – | 0.19
> 256 | > 256 | CVTVRVNNRGRGLRISLQVC (disulfide 1-20 (inferred)) [SySA-47] | – | – | – | – | 0.48
